Test results as given in patent publication US20230301300A1, “HERBICIDAL COMPOSITIONS” (SYNGENTA CROP PROTECTION AG, priority 2020, published 2023).

Legend:
Format in all cases: in vivo
Galium aparine (GALAP) = assay: B2 Post-Emergence Efficacy - Test 2; settings: 15 days after application, 0-100 scale
Procedure, shortened: (§1)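 Score 0–100 (0 none, 100 kill), 15 d after spraying. Treatment: IF50 formulation in aqueous spray, adjuvant Genapol X080 at 0.2% v/v, applied to plants 12 d after sowing. Glasshouse day/night 24/18 or 20/16 °C, 16 h light, 65% humidity.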

[1] = system: Amaranthus retroflexus (AMARE); assay: B2 Post-Emergence Efficacy - Test 2; settings: 15 days after application, 0-100 scale
Procedure, shortened: as §1

Setaria faberi (SETFA) [2] = assay: B2 Post-Emergence Efficacy - Test 2; settings: 15 days after application, 0=no damage, 100=total kill
Procedure, shortened: as §1

Beta vulgaris (BEAVA) = assay: B2 Post-Emergence Efficacy - Test 2; settings: 15 days after application, 0-100 scale
Procedure, shortened: as §1

Sinapis arvensis (SINAR) = assay: B2 Post-Emergence Efficacy - Test 2; settings: 15 days after application, 0-100 scale
Procedure, shortened: as §1

[3] = system: Triticum aestivum (TRZAW); assay: B2 Post-Emergence Efficacy - Test 2; settings: 15 days after application, 0-100 scale
Procedure, shortened: as §1

Eleisine indica (ELEIN) = assay: B2 Post-Emergence Efficacy - Test 2; settings: 15 days after application, 0=no damage, 100=total kill
Procedure, shortened: as §1

Bidens pilosa (BIDPI) = assay: B2 Post-Emergence Efficacy - Test 2; settings: 15 days after application, 0-100 scale
Procedure, shortened: as §1

Kochia scoparia (KSHSC) = assay: B2 Post-Emergence Efficacy - Test 2; settings: 15 days after application, 0-100 scale
Procedure, shortened: as §1

[4] = system: Digitaria sanguinalis (DIGSA); assay: B2 Post-Emergence Efficacy - Test 2; settings: 15 days after application, 0=no damage, 100=total kill
Procedure, shortened: as §1

[5] = system: Ipomoea hederacea (IPOHE); assay: B2 Post-Emergence Efficacy - Test 2; settings: 15 days after application, 0-100 scale
Procedure, shortened: as §1

Avena fatua (AVEFA) = assay: B2 Post-Emergence Efficacy - Test 2; settings: 15 days after application, 0-100 scale
Procedure, shortened: as §1

Veronica persica (VERPE) = assay: B2 Post-Emergence Efficacy - Test 2; settings: 15 days after application, 0-100 scale
Procedure, shortened: as §1

[6] = system: Brachiaria plantaginea (BRAPL); assay: B2 Post-Emergence Efficacy - Test 2; settings: 15 days after application, 0=no damage, 100=total kill
Procedure, shortened: as §1

Hordeum vulgare (HORVW) = assay: B2 Post-Emergence Efficacy - Test 2; settings: 15 days after application, 0-100 scale
Procedure, shortened: as §1

Setaria faberi (SETFA) [7] = assay: B1 Post-Emergence Efficacy - Test 1; settings: 1000 g/ha, after 13 days, five point scale
Protocol: Seeds of a variety of test species are sown in standard soil in pots:— Solanum nigrum (SOLNI), Amaranthus retoflexus (AMARE), Setaria faberi (SETFA), Alopecurus myosuroides (ALOMY), Echinochloa crus-galli (ECHCG), Ipomoea hederacea (IPOHE), Lolium perenne (LOLPE). After 8 days cultivation (post-emergence) under controlled conditions in a glasshouse (at 24/16° C., day/night; 14 hours light; 65% humidity), the plants are sprayed with an aqueous spray solution derived from the formulation of the technical active ingredient in acetone/water (50:50) solution containing 0.5% Tween 20 (polyoxyethylene sorbitan monolaurate, CAS RN 9005-64-5). Compounds are applied at 1000 g/ha. The test plants are then grown in a glasshouse under controlled conditions in a glasshouse (at 24/16° C., day/night; 14 hours light; 65% humidity) and watered twice daily. After 13 days, the test is evaluated for the percentage damage caused to the plant. The biological activities are assessed on a five point scale (5=80-100%; 4=60-79%; 3=40-59%; 2=20-39%; 1=0-19%). A blank value in the table is indicative that the compound was not tested on that species.

Cc1nn(C)c(=O)c(-c2c(F)ccc(Cl)c2CCc2ccc(C#N)cc2)c1O [Compound 1.024, 4-[3-chloro-6-fluoro-2-[2-[4-(cyano)phenyl]ethyl]phenyl]-5-hydroxy-2,6-dimethyl-pyridazin-3-one]
Herbicidal activity GALAP (Galium aparine (GALAP); 30 g/Ha): 20
Herbicidal activity GALAP (Galium aparine (GALAP); 60 g/Ha): 20
Herbicidal activity GALAP (Galium aparine (GALAP); 125 g/Ha): 60
Herbicidal activity GALAP (Galium aparine (GALAP); 250 g/Ha): 90
Herbicidal activity GALAP (Galium aparine (GALAP); 500 g/Ha): 90
Herbicidal activity AMARE ([1]; 15 g/Ha): 80
Herbicidal activity AMARE ([1]; 30 g/Ha): 90
Herbicidal activity AMARE ([1]; 60 g/Ha): 90
Herbicidal activity AMARE ([1]; 125 g/Ha): 100
Herbicidal activity AMARE ([1]; 250 g/Ha): 100
Herbicidal activity AMARE ([1]; 500 g/Ha): 100
Herbicidal activity on a 0-100 scale, SETFA (Setaria faberi (SETFA) [2]; 15 g/Ha): 20
Herbicidal activity on a 0-100 scale, SETFA (Setaria faberi (SETFA) [2]; 30 g/Ha): 70
Herbicidal activity on a 0-100 scale, SETFA (Setaria faberi (SETFA) [2]; 60 g/Ha): 80
Herbicidal activity on a 0-100 scale, SETFA (Setaria faberi (SETFA) [2]; 125 g/Ha): 90
Herbicidal activity on a 0-100 scale, SETFA (Setaria faberi (SETFA) [2]; 250 g/Ha): 90
Herbicidal activity on a 0-100 scale, SETFA (Setaria faberi (SETFA) [2]; 500 g/Ha): 100
Herbicidal activity BEAVA (Beta vulgaris (BEAVA); 15 g/Ha): 70
Herbicidal activity BEAVA (Beta vulgaris (BEAVA); 30 g/Ha): 70
Herbicidal activity BEAVA (Beta vulgaris (BEAVA); 60 g/Ha): 80
Herbicidal activity BEAVA (Beta vulgaris (BEAVA); 125 g/Ha): 80
Herbicidal activity BEAVA (Beta vulgaris (BEAVA); 250 g/Ha): 80
Herbicidal activity BEAVA (Beta vulgaris (BEAVA); 500 g/Ha): 100
Herbicidal activity SINAR (Sinapis arvensis (SINAR); 15 g/Ha): 80
Herbicidal activity SINAR (Sinapis arvensis (SINAR); 30 g/Ha): 80
Herbicidal activity SINAR (Sinapis arvensis (SINAR); 60 g/Ha): 80
Herbicidal activity SINAR (Sinapis arvensis (SINAR); 250 g/Ha): 90
Herbicidal activity SINAR (Sinapis arvensis (SINAR); 500 g/Ha): 100
Herbicidal activity TRZAW ([3]; 15 g/Ha): 0
Herbicidal activity TRZAW ([3]; 30 g/Ha): 0
Herbicidal activity TRZAW ([3]; 60 g/Ha): 20
Herbicidal activity TRZAW ([3]; 125 g/Ha): 30
Herbicidal activity TRZAW ([3]; 250 g/Ha): 60
Herbicidal activity TRZAW ([3]; 500 g/Ha): 70
Herbicidal activity on a 0-100 scale, ELEIN (Eleisine indica (ELEIN); 15 g/Ha): 0
Herbicidal activity on a 0-100 scale, ELEIN (Eleisine indica (ELEIN); 30 g/Ha): 40
Herbicidal activity on a 0-100 scale, ELEIN (Eleisine indica (ELEIN); 60 g/Ha): 40
Herbicidal activity on a 0-100 scale, ELEIN (Eleisine indica (ELEIN); 125 g/Ha): 60
Herbicidal activity on a 0-100 scale, ELEIN (Eleisine indica (ELEIN); 250 g/Ha): 80
Herbicidal activity on a 0-100 scale, ELEIN (Eleisine indica (ELEIN); 500 g/Ha): 80
Herbicidal activity BIDPI (Bidens pilosa (BIDPI); 15 g/Ha): 80
Herbicidal activity BIDPI (Bidens pilosa (BIDPI); 30 g/Ha): 80
Herbicidal activity BIDPI (Bidens pilosa (BIDPI); 60 g/Ha): 80
Herbicidal activity BIDPI (Bidens pilosa (BIDPI); 125 g/Ha): 80
Herbicidal activity BIDPI (Bidens pilosa (BIDPI); 250 g/Ha): 80
Herbicidal activity BIDPI (Bidens pilosa (BIDPI); 500 g/Ha): 90
Herbicidal activity KCHSC (Kochia scoparia (KSHSC); 15 g/Ha): 0
Herbicidal activity KCHSC (Kochia scoparia (KSHSC); 30 g/Ha): 0
Herbicidal activity KCHSC (Kochia scoparia (KSHSC); 60 g/Ha): 0
Herbicidal activity KCHSC (Kochia scoparia (KSHSC); 125 g/Ha): 10
Herbicidal activity KCHSC (Kochia scoparia (KSHSC); 250 g/Ha): 10
Herbicidal activity KCHSC (Kochia scoparia (KSHSC); 500 g/Ha): 20
Herbicidal activity on a 0-100 scale, DIGSA ([4]; 15 g/Ha): 0
Herbicidal activity on a 0-100 scale, DIGSA ([4]; 30 g/Ha): 20
Herbicidal activity on a 0-100 scale, DIGSA ([4]; 60 g/Ha): 40
Herbicidal activity on a 0-100 scale, DIGSA ([4]; 125 g/Ha): 80
Herbicidal activity on a 0-100 scale, DIGSA ([4]; 250 g/Ha): 90
Herbicidal activity on a 0-100 scale, DIGSA ([4]; 500 g/Ha): 90
Herbicidal activity IPOHE ([5]; 30 g/Ha): 100
Herbicidal activity IPOHE ([5]; 60 g/Ha): 100
Herbicidal activity IPOHE ([5]; 125 g/Ha): 100
Herbicidal activity IPOHE ([5]; 250 g/Ha): 100
Herbicidal activity IPOHE ([5]; 500 g/Ha): 100
Herbicidal activity AVEFA (Avena fatua (AVEFA); 15 g/Ha): 10
Herbicidal activity AVEFA (Avena fatua (AVEFA); 30 g/Ha): 20
Herbicidal activity AVEFA (Avena fatua (AVEFA); 60 g/Ha): 30
Herbicidal activity AVEFA (Avena fatua (AVEFA); 125 g/Ha): 60
Herbicidal activity AVEFA (Avena fatua (AVEFA); 250 g/Ha): 70
Herbicidal activity AVEFA (Avena fatua (AVEFA); 500 g/Ha): 80
Herbicidal activity VERPE (Veronica persica (VERPE); 15 g/Ha): 80
Herbicidal activity VERPE (Veronica persica (VERPE); 30 g/Ha): 80
Herbicidal activity VERPE (Veronica persica (VERPE); 60 g/Ha): 90
Herbicidal activity VERPE (Veronica persica (VERPE); 125 g/Ha): 80
Herbicidal activity VERPE (Veronica persica (VERPE); 250 g/Ha): 100
Herbicidal activity VERPE (Veronica persica (VERPE); 500 g/Ha): 100
Herbicidal activity on a 0-100 scale, BRAPL ([6]; 15 g/Ha): 30
Herbicidal activity on a 0-100 scale, BRAPL ([6]; 30 g/Ha): 60
Herbicidal activity on a 0-100 scale, BRAPL ([6]; 60 g/Ha): 70
Herbicidal activity on a 0-100 scale, BRAPL ([6]; 125 g/Ha): 70
Herbicidal activity on a 0-100 scale, BRAPL ([6]; 250 g/Ha): 70
Herbicidal activity on a 0-100 scale, BRAPL ([6]; 500 g/Ha): 90
Herbicidal activity HORVW (Hordeum vulgare (HORVW); 15 g/Ha): 0
Herbicidal activity HORVW (Hordeum vulgare (HORVW); 30 g/Ha): 10
Herbicidal activity HORVW (Hordeum vulgare (HORVW); 60 g/Ha): 10
Herbicidal activity HORVW (Hordeum vulgare (HORVW); 125 g/Ha): 10
Herbicidal activity HORVW (Hordeum vulgare (HORVW); 250 g/Ha): 10
Herbicidal activity HORVW (Hordeum vulgare (HORVW); 500 g/Ha): 20
percentage damage caused to the plant, SETFA (Setaria faberi (SETFA) [7]): 5 (5=80-100%)
